Two compounds from article PMC5914528 (Molecular microbiology, 2018) can be followed below.

Assay [1] deals with T1, QscR (Pseudomonas aeruginosa, UniProt G3XD77). Conditions: DNA binding of QscR with ligand; Eqn 5.
Assay [2] has as its target T1, QscR. It counts as cell-based. The conditions noted are these: for Activation (%): 100% = activity of 3OC12-HSL.
Another assay deals with LasR (Pseudomonas aeruginosa, UniProt P25084). The assay is described as follows: LasR agonism/antagonism assay, E. coli reporter strain. It counts as cell-based. The conditions noted are these: Table S2 (supplement not shown).
Chain of LasR (P25084 whole entry): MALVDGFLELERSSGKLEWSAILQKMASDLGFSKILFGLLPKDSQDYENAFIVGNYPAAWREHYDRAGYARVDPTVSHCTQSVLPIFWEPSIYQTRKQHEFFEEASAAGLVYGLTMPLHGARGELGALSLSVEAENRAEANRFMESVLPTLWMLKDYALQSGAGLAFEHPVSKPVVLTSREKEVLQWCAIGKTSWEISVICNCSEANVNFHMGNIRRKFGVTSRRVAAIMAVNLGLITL

Consider `CCCCCCCCCC(=O)CC(=O)N[C@H]1CCOC1=O` [3OC12-HSL, N-(3-oxododecanoyl) L-homoserine lactone], for which the Hill coefficient on QscR [1] came to 1.7 ± 0.4. Besides, the “Activation (%)” value on QscR [2] amounted to 100%.
For `O=C(CCCOc1ccc(Cl)cc1)NC1CCOC1=O` (stereo not drawn) [CL], on LasR, the “activity on LasR in cell-based reporter assays” value was “inhibited”. On QscR [1], this compound displayed a Hill coefficient of 1.9 ± 0.3. For the same compound, at QscR [2], the “Activation (%)” value is given as 86%. A half-maximal effect on QscR [2] (E. coli JLD271 QscR reporter) (EC50) was put at 16 nM.
